Measured values from patent publication US11696913B2, “Prolonged ectoparasite-controlling agent for animal” (MITSUI CHEMICALS AGRO, INC., priority 2017, dated 2023).
Like-named read-outs stand apart in the source and are kept apart here.

Tests used:
Ctenocephalides felis [1] = assay: Systemic treatment in-vivo test with cat flea on rats; conditions: intraperitoneal injection, 5 mg/kg; for inhibition in vivo at 5 mg/kg: Ctenocephalides felis, ip
Method: Systemic Treatment In-Vivo Test with American Dog Tick Nymph and Cat Flea on Rats
Type of study and overall study design: The method is a randomized non-blinded efficacy study in accordance with European animal welfare requirements. Rats (Rattus norvegicus) were randomized based on pre-treatment flea counts. The efficacy of treatment was determined by comparison of the flea and tick counts of different treatment groups versus the placebo-treated control group. The experimental unit was the individual study animal. Method and route of administration: The compound was applied in a suitable solvent and carrier (more specifically, added to glycerol formal; in case of poorly soluble compounds, a solvent mixture with up to 25% by volume of N-methyl pyrrolidone may be used.) considering the individual body weight as an intraperitoneal injection.
Experimental infestation: On the day of treatment and weekly thereafter, 30 ticks (D. variabilis nymphs) were released onto the back of each rat, and 30 fleas (C. felis) were released onto the back of each rat 24 h later.
Tick and Flea counting: Rats were thoroughly examined and ticks and fleas were manually removed 48 h (±4 h) after tick infestation and 24 h after flea infestation. Live fleas and live attached engorged ticks were counted. In non-evident cases, engorgement status was evaluated by squeezing the tick on a filter paper to find traces of blood as sign for engorgement.

Ctenocephalides felis [2] = assay: Ctenocephalides felis in-vitro feeding test with fleas (CTECFE oral); conditions: 48 hours, read-out: insecticidal feeding activity; for pest or weed control at 0.16 ppm: dose 0.16 ppm in citrated cattle blood; for pest or weed control at 0.8 ppm: dose 0.8 ppm in citrated cattle blood; for pest or weed control at 4 ppm: dose 4 ppm in citrated cattle blood; for pest or weed control at 0.0064 ppm: dose 0.0064 ppm in citrated cattle blood; for pest or weed control at 0.032 ppm: dose 0.032 ppm in citrated cattle blood
Summary of the method: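 Scored as percent fleas killed (0–100%) 48 hours after feeding began. Compound, dissolved in DMSO and diluted into citrated cattle blood, was offered via a parafilm membrane to roughly 20 adult male and female C. felis at about 37° C.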

Spodoptera litura = assay: Insecticidal testing against common cutworm; assay type: in vivo; conditions: foliar, 144 h, concentration 100 ppm, cabbage leaf dip, second-stage larvae, after 6 days, read-out: pesticidal rate
Excerpt: Insecticidal Testing Against Common Cutworm (Spodoptera litura)

Plutella xylostella = assay: Insecticidal testing against diamondback moth; assay type: in vivo; conditions: foliar, 144 h, concentration 100 ppm, cabbage leaf dip, third-stage larvae, after 6 days, read-out: pesticidal rate
Excerpt: Insecticidal Testing Against Diamondback Moth (Plutella xylostella)

[3] = test system: Rhipicephalus (Boophilus) microplus; assay: In vitro injection test with Rhipicephalus (Boophilus) microplus (BOOPMI Inj); conditions: 168 h, laid fertile eggs after 7 days, read-out: acaricidal activity; for pest or weed control at 0.00016 mg: dose 0.16 μg/animal injected; for pest or weed control at 0.0008 mg: dose 0.8 μg/animal injected
Summary of the method: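 Five engorged adult females each get a 1 μl abdominal injection of compound dissolved and diluted in DMSO. Kept 7 days at 28° C./85% rel. hum.; percent activity rates egg laying and egg fertility (0% all fertile, 100% none laid or infertile).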

Laodelphax striatellus = assay: Insecticidal testing against small brown planthopper; assay type: in vivo; conditions: 144 h, concentration 100 ppm, sprayed rice seedlings, after 6 days, read-out: pesticidal rate
Method: Insecticidal Testing Against Small Brown Planthopper (Laodelphax striatellus)
An additional test was carried out with 10 small brown planthoppers by preparing an acetone solution of the testing compound diluted to a predetermined concentration, spraying the solution onto rice seedlings and air drying the rice seedlings. The medicament was all used as received. The rice seedlings were placed in a constant-temperature room at 25° C., and the survival rate was investigated after 6 days. The test was carried out by means of one group of 10 pests.

Ctenocephalides felis [4] = assay: In vitro contact test with fleas; conditions: read-out: insecticidal activity; for pest or weed control at 0.2 µg/cm2, 0.2 µg/cm2: dose 0.2 μg/cm^2, dead or moribund fleas after 48 h; for pest or weed control at 1 µg/cm2, 1 µg/cm2: dose 1 μg/cm^2, dead or moribund fleas after 48 h; for pest or weed control at 0.04 µg/cm2, 0.04 µg/cm2: dose 0.04 μg/cm^2, dead or moribund fleas after 48 h
Summary of the method: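 Activity is the percentage of fleas dead or moribund at 48 h, judged by immobility or uncoordinated movement after tapping. Tubes were coated by evaporating acetone solutions (900 ppm gives 5 μg/cm^2), then held 5-10 adult fleas of both sexes at room temperature and ambient humidity.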

Compound	pest or weed control at 0.16 ppm (Ctenocephalides felis [2]) [%]	pest or weed control at 0.8 ppm (Ctenocephalides felis [2]) [%]	pest or weed control at 4 ppm (Ctenocephalides felis [2]) [%]	pest or weed control at 100 ppm (Spodoptera litura) [%]	pest or weed control at 100 ppm (Plutella xylostella) [%]	pest or weed control at 0.00016 mg [3] [%]	pest or weed control at 0.0008 mg [3] [%]	pest or weed control at 100 ppm (Laodelphax striatellus) [%]	pest or weed control at 0.2 µg/cm2, 0.2 µg/cm2 (Ctenocephalides felis [4]) [%]	pest or weed control at 1 µg/cm2, 1 µg/cm2 (Ctenocephalides felis [4]) [%]	further results
CCN(C(=O)c1ccc(F)cc1)c1cccc(C(=O)Nc2c(I)cc(C(F)(C(F)(F)F)C(F)(F)F)cc2C(F)(F)F)c1F [Compound 43]	–	–	–	–	–	–	–	–	–	–	inhibition in vivo at 5 mg/kg (Ctenocephalides felis [1]; SD 2, read-out: Geometric mean percent reduction in live flea (Ctenocephalides felis) counts compared to untreated control rats): 100%; inhibition in vivo at 5 mg/kg (Ctenocephalides felis [1]; SD 9, read-out: Geometric mean percent reduction in live flea (Ctenocephalides felis) counts compared to untreated control rats): 99%; inhibition in vivo at 5 mg/kg (Ctenocephalides felis [1]; SD 16, read-out: Geometric mean percent reduction in live flea (Ctenocephalides felis) counts compared to untreated control rats): 90%; inhibition in vivo at 5 mg/kg (Ctenocephalides felis [1]; SD 23, read-out: Geometric mean percent reduction in live flea (Ctenocephalides felis) counts compared to untreated control rats): 91%; inhibition in vivo at 5 mg/kg (Ctenocephalides felis [1]; SD 30, read-out: Geometric mean percent reduction in live flea (Ctenocephalides felis) counts compared to untreated control rats): 13%
CN(C(=O)c1ccc(S(N)(=O)=O)cc1)c1cccc(C(=O)Nc2c(I)cc(C(F)(C(F)(F)F)C(F)(F)F)cc2C(F)(F)F)c1F [Compound 45]	95	95	95	≥ 70	≥ 70	100	100	–	–	–	–
CC(C)c1ccc(C(=O)N(C)c2cccc(C(=O)Nc3c(I)cc(C(F)(C(F)(F)F)C(F)(F)F)cc3C(F)(F)F)c2F)cc1 [Compound 47]	–	–	95	≥ 70	≥ 70	–	100	≥ 70	95	95	–
CN(C(=O)c1ccc(C(N)=O)cc1)c1cccc(C(=O)Nc2c(I)cc(C(F)(C(F)(F)F)C(F)(F)F)cc2C(F)(F)F)c1F [Compound 48]	95	95	95	≥ 70	≥ 70	100	100	–	–	95	–
CN(C(=O)c1ccc(S(C)(=O)=O)cc1)c1cccc(C(=O)Nc2c(I)cc(C(F)(C(F)(F)F)C(F)(F)F)cc2C(F)(F)F)c1F [Compound 49]	95	95	95	≥ 70	≥ 70	100	100	≥ 70	95	95	pest or weed control at 0.04 µg/cm2, 0.04 µg/cm2 (Ctenocephalides felis [4]): 95%; pest or weed control at 0.0064 ppm (Ctenocephalides felis [2]): 95%; pest or weed control at 0.032 ppm (Ctenocephalides felis [2]): 95%
COc1ccc(C(=O)N(C)c2cccc(C(=O)Nc3c(I)cc(C(F)(C(F)(F)F)C(F)(F)F)cc3C(F)(F)F)c2F)cc1OC [Compound 50]	–	–	95	≥ 70	≥ 70	–	–	–	–	–	–
CN(C(=O)c1ccc2c(c1)CCCC2)c1cccc(C(=O)Nc2c(I)cc(C(F)(C(F)(F)F)C(F)(F)F)cc2C(F)(F)F)c1F [Compound 52]	–	–	95	≥ 70	≥ 70	–	100	–	–	95	–
CN(C(=O)c1ccc2c(c1)OCO2)c1cccc(C(=O)Nc2c(I)cc(C(F)(C(F)(F)F)C(F)(F)F)cc2C(F)(F)F)c1F [Compound 55]	–	–	95	≥ 70	≥ 70	–	–	–	95	95	–
CN(C(=O)c1ccc(OC(F)(F)F)cc1)c1cccc(C(=O)Nc2c(I)cc(C(F)(C(F)(F)F)C(F)(F)F)cc2C(F)(F)F)c1F [Compound 61]	–	95	95	≥ 70	≥ 70	100	100	≥ 70	95	95	–
CN(C(=O)c1ccc(F)cc1)c1cc(C(=O)Nc2c(Cl)cc(C(F)(C(F)(F)F)C(F)(F)F)cc2C(F)(F)F)ccc1F [Compound 83]	95	95	95	≥ 70	≥ 70	100	100	≥ 70	95	95	pest or weed control at 0.04 µg/cm2, 0.04 µg/cm2 (Ctenocephalides felis [4]): 95%; pest or weed control at 0.032 ppm (Ctenocephalides felis [2]): 95%
CN(C(=O)c1ccc(C(F)(F)F)nc1C(F)(F)F)c1cccc(C(=O)Nc2c(I)cc(C(F)(C(F)(F)F)C(F)(F)F)cc2C(F)(F)F)c1F [Compound 111]	95	95	95	≥ 70	≥ 70	100	100	–	95	95	pest or weed control at 0.04 µg/cm2, 0.04 µg/cm2 (Ctenocephalides felis [4]): 95%; pest or weed control at 0.0064 ppm (Ctenocephalides felis [2]): 95%; pest or weed control at 0.032 ppm (Ctenocephalides felis [2]): 95%
O=C(Nc1cccc(C(=O)Nc2c(I)cc(C(F)(C(F)(F)F)C(F)(F)F)cc2C(F)(F)F)c1F)c1ccc(C(F)(F)F)nc1C(F)(F)F [Compound 112]	95	95	95	≥ 70	≥ 70	–	100	–	–	–	–
CN(C(=O)c1cnc(C(F)(F)F)nc1)c1cccc(C(=O)Nc2c(I)cc(C(F)(C(F)(F)F)C(F)(F)F)cc2C(F)(F)F)c1F [Compound 113]	95	95	95	≥ 70	≥ 70	100	100	≥ 70	–	–	pest or weed control at 0.032 ppm (Ctenocephalides felis [2]): 95%; pest or weed control at 32 ng ([3]; dose 0.032 μg/animal injected): 100%
O=C(Nc1cccc(C(=O)Nc2c(I)cc(C(F)(C(F)(F)F)C(F)(F)F)cc2C(F)(F)F)c1F)c1cnc(C(F)(F)F)nc1 [Compound 114]	95	95	95	≥ 70	≥ 70	–	100	–	–	–	–
Cc1cc(C2=NOC(c3cc(Cl)cc(Cl)c3)(C(F)(F)F)C2)ccc1C(=O)NCC(=O)NCC(F)(F)F (stereo not shown) [Fluralaner, fluralaner, reference compound]	–	–	–	–	–	–	–	–	–	–	Geometric mean percent reduction in live flea (Ctenocephalides felis) counts compared to untreated control rats (Ctenocephalides felis [1]; SD 2): 100%; Geometric mean percent reduction in live flea (Ctenocephalides felis) counts compared to untreated control rats (Ctenocephalides felis [1]; SD 9): 100%; Geometric mean percent reduction in live flea (Ctenocephalides felis) counts compared to untreated control rats (Ctenocephalides felis [1]; SD 16): 51%; Geometric mean percent reduction in live flea (Ctenocephalides felis) counts compared to untreated control rats (Ctenocephalides felis [1]; SD 23): 7%
